Test results as given in paper PMC7315563, “Bioactive fluorenes. Part III: 2,7-dichloro-9H-fluorene-based thiazolidinone and azetidinone analogues as anticancer and antimicrobial against multidrug resistant strains agents” (BMC Chemistry, 2020).
≈ marks a conversion by molar mass, not a printed value.

Legend:
[1] = tested on: Staphylococcus aureus (S. aureus), multidrug resistant clinical isolate; experiment: agar well diffusion assay; type: cell-based; conditions: Staphylococcus aureus; S. aureus; 500 µg/mL of tested compound; 24 h
Text: (§1) All microbial strains were kindly provided from the department of Medical Microbiology and Immunology faculty of Medicine Assiut University, these clinical isolates were obtained from clinical cases of infections admitted to Assiut University hospital as urinary tract infections, corneal ulcers, bacterial and fungal pneumonia, otomycosis, oral thrush and wound infections.
(§2) The clinical isolates used were multidrug resistant strains, they were resistant to β lactam (penicillin, amoxacillin, oxacillin), cephalosporins (cefazolin, cefaclor and cefepime) and macrolides (erythromycin and clarithromycin), they included Gram positive bacteria as Staphylococcus aureus (S. aureus), Methicillin-resistant Staphylococcus aureus (MRSA), Streptococcus pneumoniae (S. pneumoniae), and Gram negative bacteria as Escherichia coli (E. coli), Klebsiella pneumoniae (K. pneumoniae), Pseudomonas aeruginosa (P. aeruginosa), and Acinetobacter baumannii (A. baumannii). The fungal strains that were tested are Aspergillus flavus (A. flavus), A. niger (A. niger) and Candida albicans (C. albicans).
(§3) The antimicrobial activity of the fluorene derivatives was initially evaluated by agar well diffusion assay. Mueller–Hinton agar (CM0337) was poured into Petri dishes at 50–60 °C and left to solidify for 15 min. Subsequently, overnight microbial suspensions of tested strains was adjusted to turbidity of 0.5 McFarland Standard, which equals to 1–2 × 10^8 CFU/mL for bacteria and 1–5 × 10^6 for fungi. The microbial inoculums were then diluted in 1:100 ratio in case of bacteria and 1:10 ratio in case of fungi in order to get 1–5 × 10^5 CFU/mL. a sterile cotton swab was dipped into the adjusted microbial suspension and the Mueller–Hinton agar plates were inoculated by evenly streaking cotton swab over the agar medium. Then wells with a diameter of 0.5 cm were cut in the medium with a sterile cork borer. Stock solutions of the flourene derivatives were diluted in DMSO 1% to get 500 μg/mL concentrations. The tested flourene derivatives and controls (50 μL) were dispensed into the wells. The plates were incubated for 24 h at 37 °C for bacteria and C. albicans while at 25 °C for A. falvus and A. niger. The diameters of zones of inhibition (ZOI) around the wells were measured in mm. Following control agents were used: positive control agents—vancomycin (50 μg/mL) for Gram positive bacteria, gentamicin (10 μg/mL) (for Gram negative bacteria) and fluconazole 25 μg/mL for fungi and negative control agent is 1% DMSO.

[2] = tested on: MDA-MB-231 human breast cancer cells; experiment: cell viability assay (MTT); type: cell-based; conditions: 24 h; for viability at 1 µg/mL: read-out: Validity (%) for sample concentrations (µg/mL) 1; for viability at 10 µg/mL: read-out: Validity (%) for sample concentrations (µg/mL) 10; for viability at 31.25 µg/mL: read-out: Validity (%) for sample concentrations (µg/mL) 31.25; for viability at 62.5 µg/mL: read-out: Validity (%) for sample concentrations (µg/mL) 62.5; for viability at 125 µg/mL: read-out: Validity (%) for sample concentrations (µg/mL) 125; for viability at 250 µg/mL: read-out: Validity (%) for sample concentrations (µg/mL) 250; for viability at 500 µg/mL: read-out: Validity (%) for sample concentrations (µg/mL) 500
Description: (§4) WI-38 normal lung fibroblast cells, A549 lung cancer cells, and MDA-MB-231 breast cancer cells were obtained from VACSERA—Cell Culture Unit, Cairo, Egypt. The cell lines were originally obtained from the American Tissue Culture Collection (ATCC). WI-38, A549, and MDA-MB-231 cell lines were cultured in RPMI-1640 medium supplemented with 10% inactivate fetal bovine serum (FBS) and 1% penicillin/streptomycin were bought (Gibco, Invitrogen, CA). WI-38, A549, and MDA-MB-231 cells were seeded into 96-well plates (at a density of 5000 cells/well). On the following day, cells were treated with different concentrations (0, 1, 10, 31.25, 62.5, 125, 250, 500 µg/mL) of 16 fluorene derivatives in fresh medium and incubated for another 24 h. Cell viability was then assessed using the MTT assay (Sigma Aldrich, St. Louis, MO, USA), and the absorbance was read at 570 nm using an ELISA microplate reader (Molecular Devices, Downingtown, PA, USA).

[3] = tested on: WI-38 human normal fibroblast cells; experiment: cell viability assay (MTT); type: cell-based; conditions: 24 h; for viability at 31.25 µg/mL: read-out: Validity (%) for sample concentrations (µg/mL) 31.25; for viability at 62.5 µg/mL: 62.50 µg/mL, read-out: Validity (%) for sample concentrations (µg/mL) 62.50; for viability at 125 µg/mL: read-out: Validity (%) for sample concentrations (µg/mL) 125; for viability at 250 µg/mL: read-out: Validity (%) for sample concentrations (µg/mL) 250; for viability at 500 µg/mL: read-out: Validity (%) for sample concentrations (µg/mL) 500
Description: as §4

[4] = tested on: A549 human lung cancer cells; experiment: cell viability assay (MTT); type: cell-based; conditions: 24 h; for viability at 1 µg/mL: read-out: Validity (%) for sample concentrations (µg/mL) 1; for viability at 10 µg/mL: read-out: Validity (%) for sample concentrations (µg/mL) 10; for viability at 31.25 µg/mL: read-out: Validity (%) for sample concentrations (µg/mL) 31.25; for viability at 62.5 µg/mL: 62.50 µg/mL, read-out: Validity (%) for sample concentrations (µg/mL) 62.50; for viability at 125 µg/mL: read-out: Validity (%) for sample concentrations (µg/mL) 125; for viability at 250 µg/mL: read-out: Validity (%) for sample concentrations (µg/mL) 250; for viability at 500 µg/mL: read-out: Validity (%) for sample concentrations (µg/mL) 500; for viability at 1000 µg/mL: read-out: Validity (%) for sample concentrations (µg/mL) 1000
Description: as §4, with “On the following day, cells were treated with different concentrations (0, 1, 10, 31.25, 62.5, 125, 250, 500 µg/mL) of 16 fluorene derivatives in fresh medium and incubated for another 24 h.” left out

A549 cells = experiment: FACS analysis, Annexin V and PI staining; type: cell-based, human; conditions: 24 h, 5g 500, 6c 85, 6d 117, 6k 200 µg/mL
Description: (§5) To uncover the mechanism of cell death for the compounds 5h, 6c, 6d and 6k on WI-38, A549, and MDA-MB-231 cells; Annexin v and propedium Iodide (PI) were used. In brief, WI-38, A549, MDA-MB-231 cells were cultured in 10 tissue culture dish with initial number 4 × 10^5 cell/Ml in RPMI growth media. In the following day, cells were treated with 6c, 6d and 6k as the following; (0.0, 500 μg/mL form each drug for WI-38 treatment, 0.0, 85, 117 and 200 μg/mL; respectively, for […] and 0.0, 250 from each for MDA-MB-231 cells treatment). After 24 h incubations, cells were washed and trypsinized and suspended in 50 μL 1X Annexin v binding buffer followed by adding 5 μL FITC Annexin V and incubated for 15 min at room temperature then 5 μL of PI were added to each tube. Finally, 400 μL of 1X Annexin v binding buffer were added to each tube and analyzed using Becton-Dickinson FACS Caliber.

WI-38 cells = experiment: FACS analysis, Annexin V and PI staining; type: cell-based, human; conditions: 24 h, 5g 1000 µg/mL, 6c, 6d, 6k 500 µg/mL
Description: as §5

MDA-MB-231 cells = experiment: FACS analysis, Annexin V and PI staining; type: cell-based, human; conditions: 24 h, 5g 500, 6c 105, 6d 170, 6k 130 µg/mL
Description: To uncover the mechanism of cell death for the compounds 5h, 6c, 6d and 6k on WI-38, A549, and MDA-MB-231 cells; Annexin v and propedium Iodide (PI) were used. In brief, WI-38, A549, MDA-MB-231 cells were cultured in 10 tissue culture dish with initial number 4 × 10^5 cell/Ml in RPMI growth media. […] After 24 h incubations, cells were washed and trypsinized and suspended in 50 μL 1X Annexin v binding buffer followed by adding 5 μL FITC Annexin V and incubated for 15 min at room temperature then 5 μL of PI were added to each tube. Finally, 400 μL of 1X Annexin v binding buffer were added to each tube and analyzed using Becton-Dickinson FACS Caliber.

[5] = tested on: Klebsiella pneumoniae (K. pneumoniae), multidrug resistant clinical isolate; experiment: agar well diffusion assay; type: cell-based; conditions: 24 h, 500 µg/mL of tested compound
Text: as §1, §2, §3

[6] = tested on: Escherichia coli (E. coli), multidrug resistant clinical isolate; experiment: agar well diffusion assay; type: cell-based; conditions: 24 h, 500 µg/mL of tested compound
Text: as §1, §2, §3

SMILES	viability at 1 µg/mL [2] [%]	viability at 10 µg/mL [2] [%]	viability at 31.25 µg/mL [2] [%]	viability at 62.5 µg/mL [2] [%]	viability at 125 µg/mL [2] [%]	viability at 250 µg/mL [2] [%]	viability at 500 µg/mL [2] [%]	IC50 [2] [µg/mL]	viability at 31.25 µg/mL [3] [%]	viability at 62.5 µg/mL [3] [%]	viability at 125 µg/mL [3] [%]	viability at 250 µg/mL [3] [%]	viability at 500 µg/mL [3] [%]	IC50 [3] [µg/mL]	viability at 1 µg/mL [4] [%]	viability at 10 µg/mL [4] [%]	viability at 31.25 µg/mL [4] [%]	viability at 62.5 µg/mL [4] [%]	viability at 125 µg/mL [4] [%]	viability at 250 µg/mL [4] [%]	further results
O=C(O)c1ccc(C2SCC(=O)N2c2nc(-c3cc(Cl)cc4c3-c3ccc(Cl)cc3C4)cs2)cc1 (stereo not drawn) [5g, 4-(3-(4-(2,7-Dichloro-9H-fluoren-4-yl)thiazol-2-yl)-4-oxothiazolidin-2-yl)benzoic acid]	92.6	87.3	80.9	72.2	67.7	63.2	58.5	> 500	96.7	95.1	90.2	85.8	79.2	> 500	93.7	90.3	88.7	78.6	84.1	75.7	zone of inhibition at 500 µg/mL [1]: 10 mm; viability at 500 µg/mL [4]: 56.3%; viability at 1000 µg/mL [4]: 16.8%; IC50 [4]: 572 µg/mL (≈ 1060 µM); apoptotic cell death (of total cell number) (A549 cells): 1.25%; necrotic cell death (of total cell number) (A549 cells): 16.7%; apoptotic cell death (of total cell number) (WI-38 cells): 1.5%; necrotic cell death (of total cell number) (WI-38 cells): 15.8%; apoptotic cell death (of total cell number) (MDA-MB-231 cells): 1.34%; necrotic cell death (of total cell number) (MDA-MB-231 cells): 14.1%
O=C1CSC(c2ccnc3ccccc23)N1c1nc(-c2cc(Cl)cc3c2-c2ccc(Cl)cc2C3)cs1 (stereo not drawn) [5n, 3-(4-(2,7-Dichloro-9H-fluoren-4-yl)thiazol-2-yl)-2-(quinolin-4-yl)thiazolidin-4-one]	98.7	91	92.8	90.6	76.8	58.7	27.2	315 (≈ 576 µM)	54.3	51.5	50.8	46.4	40.5	130 (≈ 238 µM)	94.2	91.2	83.1	78.6	70.7	58.9	zone of inhibition at 500 µg/mL [5]: 5 mm; zone of inhibition at 500 µg/mL [1]: 7 mm; viability at 500 µg/mL [4]: 27.3%; viability at 1000 µg/mL [4]: 8.02%; IC50 [4]: 380 µg/mL (≈ 695 µM); melting point: 204 to 206 °C
O=C1C(Cl)C(c2ccccc2)N1c1nc(-c2cc(Cl)cc3c2-c2ccc(Cl)cc2C3)cs1 (stereo not drawn) [6a, 3-Chloro-1-(4-(2,7-dichloro-9H-fluoren-4-yl)thiazol-2-yl)-4-phenylazetidin-2-one]	99.4	92.4	90.7	83.1	78.3	69.6	63.2	> 500	71.1	66.1	59.1	49.1	47.1	241 (≈ 484 µM)	98.6	89.1	79.2	75.9	70.3	30.7	zone of inhibition at 500 µg/mL [6]: 13 mm; zone of inhibition at 500 µg/mL [1]: 5 mm; viability at 500 µg/mL [4]: 20.8%; viability at 1000 µg/mL [4]: 14.4%; IC50 [4]: 185 µg/mL (≈ 372 µM); melting point: 118 to 120 °C
O=C1C(Cl)C(C=Cc2ccccc2)N1c1nc(-c2cc(Cl)cc3c2-c2ccc(Cl)cc2C3)cs1 (stereo not drawn) [6i, 3-Chloro-1-(4-(2,7-dichloro-9H-fluoren-4-yl)thiazol-2-yl)-4-styrylazetidin-2-one]	94.2	89.1	66.8	55.9	49.2	24.3	18.2	120 (≈ 229 µM)	83.1	76.5	56.5	49.2	39.2	240 (≈ 458 µM)	96.6	91.9	89.4	78.1	76.3	67.9	zone of inhibition at 500 µg/mL [6]: 12 mm; zone of inhibition at 500 µg/mL [5]: 3 mm; viability at 500 µg/mL [4]: 53.3%; viability at 1000 µg/mL [4]: 49.4%; IC50 [4]: 801 µg/mL (≈ 1530 µM); melting point: 110 to 112 °C
